According to US9797884B2, “Marker for determination of sensitivity to anticancer agent” (KEIO UNIVERSITY, priority 2011, dated 2017):

Key:
Format in all cases: cell-based, human
[1] = system: DLD-1; assay: Sensitivity of colorectal cancer cells to 5-FU
[2] = system: HCT116; assay: Sensitivity of colorectal cancer cells to 5-FU
[3] = system: HCT116 and DLD-1 cells; assay: CE-TOFMS metabolomic analysis of intracellular metabolites after exposure to L-OHP; conditions: 10 μM L-OHP, 24-hour exposure
Protocol: Among the cell lines employed in Example 1, two human colorectal cancer cell lines (HCT116 and DLD-1) were employed. Cell culturing was performed by means of a φ100 mm/Tissue Culture Dish (IWAKI) with a medium (Dulbecco's modified Eagle's Medium (DMEM) containing 10% fetal bovine serum (product of Invitrogen) at 37° C. under 5% CO2 conditions.
The two colorectal cancer cells were exposed to L-OHP by changing the culture medium to a medium containing L-OHP at 10 μmol/L. The same culture was performed in an L-OHP-free medium (control group). After exposure to L-OHP (0 hr, 4 hr, 12 hr, 24 hr, and 48 hr), the cells were washed on ice with 5% mannitol (4° C.). Immediately thereafter, methanol (4° C., containing an internal standard) was added to the washed cells, to thereby inactivate present enzymes, and the cells were stored at −80° C. Separately, cells for cell count were provided in addition to the cells from which metabolites were extracted, and then subjected to the same treatment before performing cell count. The data were employed in correction of the cell counts. […]
Comprehensive analysis of intracellular metabolites was performed by means of a capillary electrophoresis-time-of-flight-type mass spectrometer (CE-TOFMS) (product of Agilent Technologies). […] Metabolites detected at m/z values of 50 to 1,000 were simultaneously quantitated.

[4] = system: SW480; assay: MTS assay cell viability, 48 hours L-OHP exposure; conditions: SW480, 48 hours exposure, read-out: IC50 value (L-OHP concentration at which cell growth is inhibited by 50%)
Text: (§1) Ten human colorectal cancer cell lines (DLD-1, HCT15, HCT116, HT29, Lovo, LS174T, SW480, SW620, SW1116, and WiDr) were employed. HCT116 and HT29 were obtained from Kabushiki Kaisha Yakult Honsha. DLD-1, Lovo, SW480, SW1116, and WiDr were obtained from Dainippon Sumitomo Pharma Co., Ltd. HCT15 and LS174T were obtained from Cell Resource Center for Biomedical Research, Institute of Development, Aging and Cancer, Tohoku University. SW620 was obtained from Summit Pharmaceuticals International Corporation.
(§2) Cancer cells of each cell line were exposed to 0- to 1,000-μmol/L L-OHP for 48 hours and after drug exposure, cell viability was determined by means of an MTS assay (CellTiter96™ AQueous One Solution Cell Proliferation Assay, Promega). IC50 value (L-OHP concentration at which cell growth is inhibited by 50% as compared with L-OHP-non-treated sample) was calculated, and sensitivity of each cell line to L-OHP was evaluated by the IC50 value as an index.

[5] = system: SW1116; assay: MTS assay cell viability, 48 hours L-OHP exposure; conditions: SW1116, 48 hours exposure, read-out: IC50 value (L-OHP concentration at which cell growth is inhibited by 50%)
Text: as §1, §2

[6] = system: SW620; assay: MTS assay cell viability, 48 hours L-OHP exposure
Text: as §1, §2

[7] = system: HCT116; assay: MTS assay cell viability, 48 hours L-OHP exposure; conditions: HCT116, 48 hours exposure, read-out: IC50 value (L-OHP concentration at which cell growth is inhibited by 50%)
Text: as §1, §2

[8] = system: HT29; assay: MTS assay cell viability, 48 hours L-OHP exposure; conditions: HT29, 48 hours exposure, read-out: IC50 value (L-OHP concentration at which cell growth is inhibited by 50%)
Text: as §1, §2

[9] = system: WiDr; assay: MTS assay cell viability, 48 hours L-OHP exposure; conditions: 48 hours exposure, read-out: IC50 value (L-OHP concentration at which cell growth is inhibited by 50%)
Text: as §1, §2

[10] = system: Lovo; assay: MTS assay cell viability, 48 hours L-OHP exposure; conditions: 48 hours exposure, read-out: IC50 value (L-OHP concentration at which cell growth is inhibited by 50%)
Text: as §1, §2

[11] = system: HCT15; assay: MTS assay cell viability, 48 hours L-OHP exposure
Text: as §1, §2

[12] = system: LS174T; assay: MTS assay cell viability, 48 hours L-OHP exposure
Text: as §1, §2

[13] = system: DLD-1; assay: MTS assay cell viability, 48 hours L-OHP exposure; conditions: DLD-1, 48 hours exposure, read-out: IC50 value (L-OHP concentration at which cell growth is inhibited by 50%)
Text: as §1, §2

| sensitivity of the cell line to 5-FU [1] | sensitivity of the cell line to 5-FU [2] | SMILES | ratio (HCT116/DLD-1) of IMP intracellular level after exposure relative to control group ([3]; IMP) | ratio (HCT116/DLD-1) of intracellular level after exposure relative to control group, each metabolite ([3]; dTMP, CMP, UMP, GMP, CDP, UDP, dCTP, CTP, UTP, GTP, NADP+, ATP and/or dGTP) | IC50 [4] | IC50 [5] | sensitivity group of the cell line to L-OHP on the basis of the MTS assay [6] | IC50 [7] | IC50 [8] | IC50 [9] | IC50 [10] | sensitivity group of the cell line to L-OHP on the basis of the MTS assay [11] | sensitivity group of the cell line to L-OHP on the basis of the MTS assay [12] | IC50 [13] |
| --- | --- | --- | --- | --- | --- | --- | --- | --- | --- | --- | --- | --- | --- | --- |
| low-sensitivity | high-sensitivity | O=c1[nH]cc(F)c(=O)[nH]1 [5-FU, fluorouracil] |  |  |  |  |  |  |  |  |  |  |  |  |
|  |  | O=C1[O][Pt]2([NH][C@@H]3CCCC[C@H]3[NH]2)[O]C1=O [L-OHP, (SP-4-2)-[(1R,2R)-cyclohexane-1,2-diamine-κN,κN′][ethanedioato (2-)-κO^1,κO^2]platinum] | 0.26 | ≥ 1.2 | 650 ± 70 nM | 26.4 ± 4.12 µM | high-sensitive | 890 ± 330 nM | 23.9 ± 9.29 µM | 17.3 ± 5.24 µM | 720 ± 120 nM | high-sensitive | low-sensitive | 16.9 ± 6.31 µM |
